Values after ≈ are worked out from the molar mass of the structure shown.
What was measured:
[1] = tested on: P. aeruginosa PAO1 biofilm; assay: Biofilm formation, microtitre plate crystal violet assay; type: cell-based, Pseudomonas aeruginosa; conditions: p<0.05
Description: (§1) Biofilm formation is quantified using the standard microtitre plate model. […] Aliquots (100 μL) of these cultures are transferred into the wells of polystyrene, flat bottom, non-treated 96 well plates (Falcon™, Corning™), in triplicate. For all assays, biofilms are allowed to develop for 16 h at 37° C. under static conditions, after which OD600 values are recorded, the spent broth is decanted from the wells, and the wells are gently rinsed three times with DI water. The washed biofilm is stained with crystal violet (CV). For CV stain assay, 100 μL of 0.1% (w/v) CV is loaded in each well and the plates are incubated for 15 min under static conditions at room temperature. The wells are subsequently rinsed with DI water to remove excess dye and the CV adsorbed to the biomass in each well is solubilized in 100 μL of absolute ethanol for 10 min. The solubilized CV is then quantified (as OD570) using a microplate reader. Control experiments are performed with cell-free broth to adjust for the background signal.

[2] = tested on: P. aeruginosa PA14 biofilm; assay: as above; type: cell-based, Pseudomonas aeruginosa; conditions: p<0.05
Description: as §1

P. aeruginosa PAO1 [3] = assay: Determination of minimum inhibitory concentration (MIC); type: cell-based; conditions: Pseudomonas aeruginosa, PAO1, 18 h
Description: (§2) A range of concentration of antibiotics, ciprofloxacin (0.0003-0.25 μg mL^−1) and carbenicillin (0.5-512 μg mL^−1), are chosen due to their known potency against all four bacterial strains. Dilutions are prepared in flat bottom, 96 well microtitre plates (Falcon™, Corning™, Fisher Scientific, ON, Canada). Each well of a microtitre plate is then inoculated with the desired bacterial strain (grown in MHB-II and diluted to […]) and the plate is incubated at 37° C. for 18 h under static conditions. Bacterial growth is assessed by (i) monitoring the optical density of the cell suspension in each well at 600 nm (OD600 nm), and (ii) the resazurin microtitre plate assay. In the resazurin microtitre plate assay, each well of a microtitre plate is supplemented with 20 μM resazurin, incubated in the dark for 20 min at room temperature, followed by fluorescence measurements at ex/em 570/590 nm using a TECAN Infinite M200 Pro microplate reader (Tecan Group Ltd., Switzerland). The lowest concentration of a compound able to prevent increase in OD600 nm and resazurin fluorescence intensity is recorded as the MIC for that compound.

P. aeruginosa PA14 [4] = assay: as above; type: cell-based; conditions: Pseudomonas aeruginosa, PA14, 18 h
Description: as §2

E. coli CFT073 = assay: as above; type: cell-based; conditions: Escherichia coli, CFT073, 18 h
Description: as §2

P. mirabilis HI4320 = assay: as above; type: cell-based; conditions: Proteus mirabilis, HI4320, 18 h
Description: as §2

[5] = tested on: proton motive force-driven multidrug efflux pump of P. mirabilis HI4320; assay: Ethidium bromide (EtBr) efflux assay; type: cell-based, Proteus mirabilis; conditions: PRMSE, catechol at 0.25 times the MIC; CCCP 100 μM; untreated cells 35.9
Description: An overnight grown culture of each strain is diluted 1:100 using MHB-II broth to a final volume of 10 mL and grown to an OD600 of 0.8-1.0 (at 37° C., 150 rpm). […] The tubes are incubated for 1 h (37° C., 150 rpm). The inoculum is then adjusted to 0.4 OD600 with MHB-II broth containing 5 μM EtBr and 2 mL aliquots of this mixture are pelleted (5000×g, 10 min at 4° C.). The pellets are incubated on ice immediately, resuspended in 1 mL of MHB-II, and aliquoted (200 μL) into a polystyrene 96 well black, clear-bottom plate (Corning™, Fisher Scientific, ON, Canada). EtBr efflux from the cells is monitored at room temperature using the microplate reader (ex/em 530/600 nm). Readings are taken at 5 min intervals for 1 h to monitor efflux pump activity. The background fluorescence of the medium is subtracted from all measurements and the assay is repeated independently in triplicate.

E. coli CFT073 biofilm = assay: Biofilm formation, microtitre plate crystal violet assay; type: cell-based, Escherichia coli; conditions: p<0.05
Description: as §1

P. aeruginosa PAO1 [6] = assay: Checkerboard microdilution assay (growth inhibition synergy); type: cell-based, Pseudomonas aeruginosa
Description: (§3) The checkerboard microdilution assay is used for evaluation of in vitro antimicrobial synergy between two compounds (i.e., antibiotic/PRMSE, antibiotic/pure phenolic compound, and pure phenolic compounds with each other). Two-fold serial dilutions are prepared in MHB-II for each of the two compounds under study. The serial dilutions are then loaded into 96 well plates to achieve combinations having different concentrations of each of the two compounds. Each well is subsequently inoculated with 10^6 CFU mL^−1 of the desired bacterial strain and incubated at 37° C. for 18 h under static conditions. The Fractional Inhibitory Concentration Index (FICI) for each combination is calculated by using the following formula: FICcomponent 1=MICcomponent 1, in combination/MICcomponent 1,alone FICI=FICcomponent 1+FICcomponent 2
(§4) The FICIs are interpreted as follows: FICI of […] (synergy); 0.5<FICI ≤1 (no interaction/indifference); FICI of >4 (antagonism).

P. aeruginosa PA14 [7] = assay: as above; type: cell-based, Pseudomonas aeruginosa
Description: as §3, §4

[8] = substance alone at sub-lethal concentrations, 16 h
[9] = with ciprofloxacin, both at sub-lethal concentrations
[10] = ciprofloxacin in combination with the labelled phenolic constituent
[11] = labelled constituent + gallic acid, * = synergistic
[12] = labelled constituent combined with gallic acid
[13] = labelled phenolic constituent in combination with ciprofloxacin

For Oc1ccccc1O [catechol, 1,2-dihydroxybenzene], the “inhibition of monoculture biofilm formation (OD570/OD600)” value (shortened to “inhibition”) [1, 8] was “significant inhibitory effects”, the “inhibitory effect on biofilm formation, with ciprofloxacin” value (from here on “inhibitory effect on biofilm formation”) [1, 9] was “significant inhibitory effects” and the “inhibition” value [2, 8] was “significant inhibitory effects”. The “inhibitory effect on biofilm formation” value [2, 9] was “significant inhibitory effects”, the MIC (P. aeruginosa PAO1 [3]) was 2500 µg/mL (≈ 22.7 mM) and the MIC (P. aeruginosa PA14 [4]) was 2500 µg/mL (≈ 22.7 mM). It also gave an MIC (E. coli CFT073) of 1250 µg/mL (≈ 11.4 mM), an MIC (P. mirabilis HI4320) of 1250 µg/mL (≈ 11.4 mM) and an Efflux pump activity [5] of 33.9%. For the same compound, the “inhibition” value (E. coli CFT073 biofilm; [8]) was “significant inhibitory effects”, the “inhibitory effect on biofilm formation” value (E. coli CFT073 biofilm; [9]) was “significant inhibitory effects” and the FIC of ciprofloxacin (P. aeruginosa PAO1 [6]; [10]) was 0.25. The “FICI, gallic acid” value (P. aeruginosa PAO1 [6]; [11]) was 0.5*, the “FIC, gallic acid” value (P. aeruginosa PAO1 [6]; [12]) was 0.25 and the FIC of compound (P. aeruginosa PAO1 [6]; [13]) was 0.25. For the same compound, the FIC of ciprofloxacin (P. aeruginosa PA14 [7]; [10]) was 0.25, the “FICI, gallic acid” value (P. aeruginosa PA14 [7]; [11]) was 0.37* and the “FIC, gallic acid” value (P. aeruginosa PA14 [7]; [12]) was 0.25. For the same compound, the FIC of compound (P. aeruginosa PA14 [7]; [13]) was 0.25.

From patent US10206906B2, “Synergistic combination of a phenolic-rich maple syrup extract and an antibiotic” (priority 2015, dated 2019)
